“Also recorded” adds a separate entry of the source.
Molecular target: α-glucosidase (Saccharomyces cerevisiae, UniProt P53341)
Experiment: α-Glucosidase inhibitory activity (p-nitrophenyl-α-glucopyranoside substrate, absorbance at 405 nm)
Format: biochemical
Details: compared to the positive control acarbose
Protocol: α-Glucosidase was assayed according to standard procedures. […] Ten microliters of testing materials (in triplicate) were incubated for 10 min with 20 μL of enzyme stock solution and 60 μL of PBS. After incubation, 10 μL of substrate was added and incubated for 20 min at 37 °C. Absorbance at 405 nm was then determined.
The inhibitory activity of the isolates was determined as a percentage in comparison to a blank (DMSO) according to the following equation: %αGHY=(1−A405t/A405c)×100% where %αGHY is the percentage of inhibition, A405t is the corrected absorbance of the compound under testing (A405end − A405initial), and A405c is the absorbance of the blank (A405endblank − A405initialblank). The IC50 values of compounds were calculated by the nonlinear regression analysis.

Chain of α-glucosidase (P53341 whole entry): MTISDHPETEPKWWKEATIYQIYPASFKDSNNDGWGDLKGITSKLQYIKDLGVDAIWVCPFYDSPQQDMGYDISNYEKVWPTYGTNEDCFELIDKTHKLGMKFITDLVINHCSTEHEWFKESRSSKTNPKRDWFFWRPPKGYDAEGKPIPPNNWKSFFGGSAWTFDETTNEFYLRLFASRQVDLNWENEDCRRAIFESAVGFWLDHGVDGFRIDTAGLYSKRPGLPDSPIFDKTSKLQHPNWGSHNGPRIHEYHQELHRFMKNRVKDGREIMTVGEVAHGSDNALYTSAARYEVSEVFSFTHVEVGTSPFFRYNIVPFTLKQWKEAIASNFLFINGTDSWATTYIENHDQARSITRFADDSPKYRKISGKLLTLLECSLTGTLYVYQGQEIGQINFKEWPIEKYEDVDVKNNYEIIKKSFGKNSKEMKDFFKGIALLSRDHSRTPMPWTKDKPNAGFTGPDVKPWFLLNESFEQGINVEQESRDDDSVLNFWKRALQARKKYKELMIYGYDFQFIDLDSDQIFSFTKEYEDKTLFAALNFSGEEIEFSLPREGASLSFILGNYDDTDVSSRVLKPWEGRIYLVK

SMILES	α-glucosidase inhibitory activity, result in words
Cc1cc(O)cc(Oc2cc(C)c(O)c(O)c2)c1 [Compound 1]	better than that of acarbose
Cc1cc(O)cc(Oc2cc(C)c(C(=O)OCC(O)C(O)CO)c(O)c2)c1 (stereo not drawn) [Compound 2]	better than that of acarbose
C/C(=C\CCC(C)C)c1ccc(Cc2cc(C)cc(O)c2O)cc1O [Compound 3]	strong inhibitory activity; also recorded: strong inhibitory effects
CC(C)CCCC(C)(O)c1ccc(COCc2ccc(C(C)(O)CCCC(C)C)c(O)c2)cc1O (stereo not drawn) [Compound 5]	strong inhibitory activity; also recorded: strong inhibitory effects
Cc1cc(O)cc(Oc2cc(C)cc(OCc3ccc([C@@](C)(O)CCCC(C)C)c(O)c3)c2)c1 [Compound 10, peniciaculin A]	strong inhibitory activity; also recorded: strong inhibitory effects
C/C(=C\CCC(C)C)c1ccc(Cc2c(C)cc(Oc3cc(C)cc(O)c3)cc2O)cc1O [Compound 11, expansol D]	strong inhibitory activity; also recorded: strong inhibitory effects

From publication PMC6165285, “α-Glucosidase Inhibitors: Diphenyl Ethers and Phenolic Bisabolane Sesquiterpenoids from the Mangrove Endophytic Fungus Aspergillus flavus QQSG-3” (Marine Drugs, 2018)
